Assay [1] concerns ADP-Induced Platelet Aggregation in Human PRP. Briefly: In-Vitro Human Platelet Aggregation in PRP (ADP-induced). The class given is cell-based. Conditions: 1 minute preincubation at 37° C., tested in duplicate, read-out: IC50, inhibition of ADP-induced platelet aggregation in human PRP. How it is done:
(§1) The compounds of the above invention were tested in the in vitro human platelet aggregation assay in platelet rich plasma (PRP) and in the competitive solid phase binding assay against purified human fibrinogen and vitronectin receptors.
In-Vitro Human Platelet Aggregation in PRP:
Healthy male or female donors who have not taken any antiplatelet drugs for at least two weeks were fasted for 8 hours prior to drawing blood; then 30 mL whole blood was collected using a butterfly needle and 30 cc plastic syringe with 3 mL of 0.129M buffered sodium citrate (3.8%). The syringe was rotated carefully as blood was drawn to mix the citrate. Platelet-richplasma (PRP) was prepared by centrifugation at 250× g for 12 minutes at room temperature, allowing the centrifuge to coast to a stop without braking. The PRP was removed from the blood with a plastic pipette and placed in a plastic capped, 50 mL Corning conical sterile centrifuge tube which was held at room temperature. Platelet-poor plasma (PPP) was prepared by centrifuging the remaining blood at 2000× g for 15 minutes at room temperature allowing the centrifuge to coast to a stop without braking. The PRP was adjusted with PPP to a count of 2-3×10^8 platelets per mL. 450 μL of the PRP preparation and 50 μL of the compound to be tested or saline were preincubated for 1 minute at 37° C. in a Payton aggregometer (Payton Scientific, Inc., Buffalo, N.Y.). 50 μL of adenosine 5'-diphosphate (ADP) ([…]) was added to the cuvettes and the aggregation was monitored for 1 minute. All compounds are tested in duplicate. Results are calculated as follows: Percent of control=[(maximal OD minus initial OD of compound) divided by (maximal OD minus initial OD of control saline)]×100. The % inhibition=100-(percent of control). The compounds tested and their activity results at median inhibitory concentration (IC50) were as recorded in Table 1.

The target of assay [2] is purified human fibrinogen receptor (IIb^β 3) (Homo sapiens, UniProt P05106+P08514). Briefly: Solid phase receptor assay, competitive binding to purified human fibrinogen receptor. Conditions: biotinylated ligand 1 nM final, two hours, room temperature. The method, then:
as §1
(§2) Solid Phase Receptor Assays
(§3) These assays were essentially the same as previously reported. The purified human vitronectin receptor(αv β3) or purified human fibrinogen receptor(IIb^β 3) were diluted from stock solutions to 1.0 μg/mL in Tris-buffered saline containing 1.0 mM Ca^++, Mg^++, and Mn^++, pH 7.4 (TBS^+++). The diluted receptor was immediately transferred to Linbro microtiter plates at 100 μL/well (100 ng receptor/well). The plates were sealed and incubated overnight at 4° C. to allow the receptor to bind to the wells. All remaining steps were at room temperature. The assay plates are emptied and 200 μL of 1% radioimmunoassay grade bovine serum albumin in TBS^+++ (TBS^+++ /BSA) were added to block exposed plastic surfaces. Following a 2 hour incubation, the assay plates were washed with TBS^+++ using a 96 well plate washer. Logarithmic serial dilution of the test compound and controls were made starting at a stock concentration of 2 mM and using 2 nM biotinylated vitronectin in TBS^+++ /BSA as the diluent. This premixing of labeled ligand with test (or control) ligand, and subsequent transfer of 50 μL aliquots to the assay plate was carried out with a CETUS Propette robot; the final concentration of the labeled ligand was 1 nM and the highest concentration of test compound was 1.0×10^-4M. The competition occurred for two hours after which all wells were washed with a plate washer as before. Affinity purified horseradish peroxidase labeled goat anti-biotin antibody was diluted 1:3000 in TBS^+++ /BSA and 125 μL were added to each well. After 30 minutes, the plates were washed and incubated with o-phenylendiamine/H2 O2 substrate in 100 mM/L Citrate buffer, pH 5.0. The plate was read with a microtiter plate reader at a wavelength of 450 nm and when the maximum-binding control wells reached an absorbance of about 1.0, the final A450 were recorded for analysis. The data were analyzed using a macro written for use with the EXCEL™ spreadsheet program. The mean, standard deviation, and % coefficient variation were determined for duplicate concentrations. The mean A450 values were normalized to the mean of four maximum-binding controls (no competitor added). The normalized values were subjected to a four parameter curve fit algorithm, plotted on a semi-log scale, and the computed IC50 and corresponding correlation coefficient was reported. GRGDSP, a peptide fragment of fibrinogen, was included on each plate as a positive control.

For assay [3], the target named is purified human vitronectin receptor (αv β3) (Homo sapiens, UniProt P05106+P06756). The experiment in a line: Solid phase receptor assay, competitive binding to purified human vitronectin receptor. Conditions: biotinylated vitronectin 1 nM final, two hours, highest concentration 1.0×10^-4M, read-out: IC50 Vitronetin receptor. How it is done:
as §1, §2, §3

Bounds are passed on as bounds.

As a reminder, the IC50 is the concentration that inhibits the measured activity by half.

Consider `N=C(N)c1ccc(CCCCC(=O)NC(CC(=O)O)C(=O)O[C@H]2CO[C@H]3[C@@H]2OC[C@H]3O[N+](=O)[O-])cc1` (stereo partly drawn) [Example 3], for which the results for the IC50 in assay [1], in assay [2] and in assay [3] were 2000 nM, 3.11 nM and greater than 100 µM, respectively.

For `N=C(N)c1ccc(CCCCC(=O)NC(CC(=O)O)C(=O)OC2COC3C(O)COC23)cc1` (stereo not drawn) [Example 5], the figures for the IC50 in assay [1], in assay [2] and in assay [3] were 2000 nM, 1.28 nM and greater than 100 µM, respectively.

Regarding `N=C(N)c1ccc(NC(=O)CCC(=O)NC(CC(=O)O)C(=O)O[C@H]2CO[C@H]3[C@@H]2OC[C@H]3O[N+](=O)[O-])cc1` (stereo partly drawn) [Example 6], the IC50 in assay [1] was 400 nM; in assay [2], 0.25 nM; in assay [3], greater than 100 µM.

In the case of `N=C(N)c1ccc(NC(=O)CCC(=O)NC(CC(=O)O)C(=O)O[C@H]2CO[C@H]3[C@@H]2OC[C@H]3O)cc1` (stereo partly drawn) [Example 8], the IC50 in assay [1] is 300 nM; in assay [2] it was 0.71 nM; in assay [3], greater than 100 µM.

Values taken from patent US5674894A, “Amidine derivatives useful as platelet aggregation inhibitors and vasodilators” (G.D. Searle & Co., priority 1995, dated 1997).
